Data from ChEMBL document CHEMBL1151757, “Synthesis, radiosynthesis, and biological evaluation of fluorine-18-labeled 2beta-carbo(fluoroalkoxy)-3beta-(3'-((Z)-2-haloethenyl)phenyl)nortropanes: candidate radioligands for in vivo imaging of the serotonin transporter with positron emission tomography” (J Med Chem, 2008).

Tests used:
[1] = Ratio of drug uptake in medulla to cerebellum in anesthetized cynomolgus monkey after 1.5 mins postinjection; assay type: ADME, organism-based, Macaca fascicularis; details: in vivo, 0.025 h
Pons [2] = assay: Drug uptake in anesthetized cynomolgus monkey brain pons after 15.5 mins postinjection; assay type: ADME, organism-based, Macaca fascicularis; details: in vivo
[3] = Drug uptake in anesthetized cynomolgus monkey brain cerebellum after 85 mins postinjection; assay type: ADME, organism-based, Macaca fascicularis; details: in vivo
Pons [4] = assay: Drug uptake in anesthetized cynomolgus monkey brain pons after 145 mins postinjection; assay type: ADME, organism-based, Macaca fascicularis; details: in vivo
[5] = Ratio of drug uptake in putamen to cerebellum in anesthetized cynomolgus monkey after 215 mins postinjection; assay type: ADME, organism-based, Macaca fascicularis; details: in vivo
[6] = Ratio of drug uptake in caudate to cerebellum in anesthetized cynomolgus monkey after 225 mins postinjection; assay type: ADME, organism-based, Macaca fascicularis; details: in vivo, 3.75 h
[7] = Ratio of drug uptake in putamen to cerebellum in anesthetized cynomolgus monkey after 35 mins postinjection; assay type: ADME, organism-based, Macaca fascicularis; details: in vivo
Thalamus [8] = assay: Drug uptake in anesthetized cynomolgus monkey brain thalamus after 1.5 mins postinjection; assay type: ADME, organism-based, Macaca fascicularis; details: in vivo, 0.025 h
Thalamus [9] = assay: Drug uptake in anesthetized cynomolgus monkey brain thalamus after 75 mins postinjection; assay type: ADME, organism-based, Macaca fascicularis; set-up: unit not given here; details: in vivo, 1.25 h
Midbrain [10] = assay: Drug uptake in anesthetized cynomolgus monkey brain midbrain after 9.5 mins postinjection; assay type: ADME, organism-based, Macaca fascicularis; set-up: unit not given here; details: in vivo
Putamen [11] = assay: Drug uptake in anesthetized cynomolgus monkey brain putamen after 12.5 mins postinjection; assay type: ADME, organism-based, Macaca fascicularis; set-up: unit not given here; details: in vivo
Thalamus [12] = assay: Drug uptake in anesthetized cynomolgus monkey brain thalamus after 22.5 mins postinjection; assay type: ADME, organism-based, Macaca fascicularis; set-up: unit not given here; details: in vivo, 0.375 h
Pons [13] = assay: Drug uptake in anesthetized cynomolgus monkey brain pons after 65 mins postinjection; assay type: ADME, organism-based, Macaca fascicularis; details: in vivo
[14] = Drug uptake in anesthetized cynomolgus monkey brain occipital lobe after 155 mins postinjection; assay type: ADME, organism-based, Macaca fascicularis; details: in vivo
[15] = Ratio of drug uptake in midbrain to cerebellum in anesthetized cynomolgus monkey after 2.5 mins postinjection; assay type: ADME, organism-based, Macaca fascicularis; details: in vivo
[16] = Ratio of drug uptake in caudate to cerebellum in anesthetized cynomolgus monkey after 12.5 mins postinjection; assay type: ADME, organism-based, Macaca fascicularis; details: in vivo
[17] = Drug uptake in anesthetized cynomolgus monkey brain occipital lobe after 35 mins postinjection; assay type: ADME, organism-based, Macaca fascicularis; details: in vivo
Thalamus [18] = assay: Drug uptake in anesthetized cynomolgus monkey brain thalamus after 175 mins postinjection; assay type: ADME, organism-based, Macaca fascicularis; set-up: unit not given here; details: in vivo
[19] = Drug uptake in anesthetized cynomolgus monkey brain frontal lobe after 35 mins postinjection; assay type: ADME, organism-based, Macaca fascicularis; details: in vivo
[20] = Drug uptake in anesthetized cynomolgus monkey brain frontal lobe after 22.5 mins postinjection; assay type: ADME, organism-based, Macaca fascicularis; details: in vivo, 0.375 h
Putamen [21] = assay: Drug uptake in anesthetized cynomolgus monkey brain putamen after 35 mins postinjection; assay type: ADME, organism-based, Macaca fascicularis; set-up: unit not given here; details: in vivo
Pons [22] = assay: Drug uptake in anesthetized cynomolgus monkey brain pons after 27.5 mins postinjection; assay type: ADME, organism-based, Macaca fascicularis; details: in vivo
[23] = Drug uptake in anesthetized cynomolgus monkey brain occipital lobe after 0.5 mins postinjection; assay type: ADME, organism-based, Macaca fascicularis; details: in vivo
[24] = Ratio of drug uptake in pons to cerebellum in anesthetized cynomolgus monkey after 18.5 mins postinjection; assay type: ADME, organism-based, Macaca fascicularis; details: in vivo
Pons [25] = assay: Drug uptake in anesthetized cynomolgus monkey brain pons after 2.5 mins postinjection; assay type: ADME, organism-based, Macaca fascicularis; details: in vivo
[26] = Drug uptake in anesthetized cynomolgus monkey brain occipital lobe after 215 mins postinjection; assay type: ADME, organism-based, Macaca fascicularis; details: in vivo
[27] = Ratio of drug uptake in putamen to cerebellum in anesthetized cynomolgus monkey after 75 mins postinjection; assay type: ADME, organism-based, Macaca fascicularis; details: in vivo, 1.25 h
[28] = Ratio of drug uptake in frontal lobe to cerebellum in anesthetized cynomolgus monkey after 235 mins postinjection; assay type: ADME, organism-based, Macaca fascicularis; details: in vivo
Pons [29] = assay: Drug uptake in anesthetized cynomolgus monkey brain pons after 165 mins postinjection; assay type: ADME, organism-based, Macaca fascicularis; details: in vivo, 2.75 h
[30] = Ratio of drug uptake in putamen to cerebellum in anesthetized cynomolgus monkey after 155 mins postinjection; assay type: ADME, organism-based, Macaca fascicularis; details: in vivo
Putamen [31] = assay: Drug uptake in anesthetized cynomolgus monkey brain putamen after 55 mins postinjection; assay type: ADME, organism-based, Macaca fascicularis; set-up: unit not given here; details: in vivo
[32] = Ratio of drug uptake in midbrain to cerebellum in anesthetized cynomolgus monkey after 95 mins postinjection; assay type: ADME, organism-based, Macaca fascicularis; details: in vivo
[33] = Drug uptake in anesthetized cynomolgus monkey brain frontal lobe after 3.5 mins postinjection; assay type: ADME, organism-based, Macaca fascicularis; details: in vivo
Medulla [34] = assay: Drug uptake in anesthetized cynomolgus monkey brain medulla after 225 mins postinjection; assay type: ADME, organism-based, Macaca fascicularis; details: in vivo, 3.75 h
Medulla [35] = assay: Drug uptake in anesthetized cynomolgus monkey brain medulla after 155 mins postinjection; assay type: ADME, organism-based, Macaca fascicularis; details: in vivo
Pons [36] = assay: Drug uptake in anesthetized cynomolgus monkey brain pons after 215 mins postinjection; assay type: ADME, organism-based, Macaca fascicularis; details: in vivo
Caudate [37] = assay: Drug uptake in anesthetized cynomolgus monkey brain caudate after 0.5 mins postinjection; assay type: ADME, organism-based, Macaca fascicularis, Caudate nucleus; details: in vivo
Thalamus [38] = assay: Drug uptake in anesthetized cynomolgus monkey brain thalamus after 4.5 mins postinjection; assay type: ADME, organism-based, Macaca fascicularis; set-up: unit not given here; details: in vivo, 0.075 h
[39] = Drug uptake in anesthetized cynomolgus monkey brain frontal lobe after 55 mins postinjection; assay type: ADME, organism-based, Macaca fascicularis; details: in vivo
Putamen [40] = assay: Drug uptake in anesthetized cynomolgus monkey brain putamen after 115 mins postinjection; assay type: ADME, organism-based, Macaca fascicularis; set-up: unit not given here; details: in vivo
Midbrain [41] = assay: Drug uptake in anesthetized cynomolgus monkey brain midbrain after 65 mins postinjection; assay type: ADME, organism-based, Macaca fascicularis; set-up: unit not given here; details: in vivo
Putamen [42] = assay: Drug uptake in anesthetized cynomolgus monkey brain putamen after 6.5 mins postinjection; assay type: ADME, organism-based, Macaca fascicularis; set-up: unit not given here; details: in vivo
Putamen [43] = assay: Drug uptake in anesthetized cynomolgus monkey brain putamen after 9.5 mins postinjection; assay type: ADME, organism-based, Macaca fascicularis; set-up: unit not given here; details: in vivo
[44] = Drug uptake in anesthetized cynomolgus monkey brain cerebellum after 3.5 mins postinjection; assay type: ADME, organism-based, Macaca fascicularis; details: in vivo
[45] = Ratio of drug uptake in midbrain to cerebellum in anesthetized cynomolgus monkey after 145 mins postinjection; assay type: ADME, organism-based, Macaca fascicularis; details: in vivo
[46] = Ratio of drug uptake in thalamus to cerebellum in anesthetized cynomolgus monkey after 135 mins postinjection; assay type: ADME, organism-based, Macaca fascicularis; details: in vivo, 2.25 h
[47] = Ratio of drug uptake in medulla to cerebellum in anesthetized cynomolgus monkey after 18.5 mins postinjection; assay type: ADME, organism-based, Macaca fascicularis; details: in vivo
Midbrain [48] = assay: Drug uptake in anesthetized cynomolgus monkey brain midbrain after 18.5 mins postinjection; assay type: ADME, organism-based, Macaca fascicularis; set-up: unit not given here; details: in vivo
Thalamus [49] = assay: Drug uptake in anesthetized cynomolgus monkey brain thalamus after 55 mins postinjection; assay type: ADME, organism-based, Macaca fascicularis; set-up: unit not given here; details: in vivo
[50] = Drug uptake in anesthetized cynomolgus monkey brain cerebellum after 0.5 mins postinjection; assay type: ADME, organism-based, Macaca fascicularis; details: in vivo
Caudate [51] = assay: Drug uptake in anesthetized cynomolgus monkey brain caudate after 3.5 mins postinjection; assay type: ADME, organism-based, Macaca fascicularis, Caudate nucleus; details: in vivo
Pons [52] = assay: Drug uptake in anesthetized cynomolgus monkey brain pons after 75 mins postinjection; assay type: ADME, organism-based, Macaca fascicularis; details: in vivo, 1.25 h
Midbrain [53] = assay: Drug uptake in anesthetized cynomolgus monkey brain midbrain after 1.5 mins postinjection; assay type: ADME, organism-based, Macaca fascicularis; set-up: unit not given here; details: in vivo, 0.025 h
[54] = Ratio of drug uptake in medulla to cerebellum in anesthetized cynomolgus monkey after 12.5 mins postinjection; assay type: ADME, organism-based, Macaca fascicularis; details: in vivo
Caudate [55] = assay: Drug uptake in anesthetized cynomolgus monkey brain caudate after 105 mins postinjection; assay type: ADME, organism-based, Macaca fascicularis, Caudate nucleus; details: in vivo, 1.75 h
[56] = Drug uptake in anesthetized cynomolgus monkey brain occipital lobe after 95 mins postinjection; assay type: ADME, organism-based, Macaca fascicularis; details: in vivo
[57] = Ratio of drug uptake in caudate to cerebellum in anesthetized cynomolgus monkey after 9.5 mins postinjection; assay type: ADME, organism-based, Macaca fascicularis; details: in vivo
Caudate [58] = assay: Drug uptake in anesthetized cynomolgus monkey brain caudate after 85 mins postinjection; assay type: ADME, organism-based, Macaca fascicularis, Caudate nucleus; details: in vivo
[59] = Ratio of drug uptake in midbrain to cerebellum in anesthetized cynomolgus monkey after 85 mins postinjection; assay type: ADME, organism-based, Macaca fascicularis; details: in vivo
Caudate [60] = assay: Drug uptake in anesthetized cynomolgus monkey brain caudate after 175 mins postinjection; assay type: ADME, organism-based, Macaca fascicularis, Caudate nucleus; details: in vivo
[61] = Ratio of drug uptake in pons to cerebellum in anesthetized cynomolgus monkey after 0.5 mins postinjection; assay type: ADME, organism-based, Macaca fascicularis; details: in vivo
[62] = Drug uptake in anesthetized cynomolgus monkey brain frontal lobe after 215 mins postinjection; assay type: ADME, organism-based, Macaca fascicularis; details: in vivo
[63] = Drug uptake in anesthetized cynomolgus monkey brain cerebellum after 9.5 mins postinjection; assay type: ADME, organism-based, Macaca fascicularis; details: in vivo

## O=C(OCCC[18F])C1C2CCC(CC1c1cccc(/C=C\Br)c1)N2 (stereo not drawn)
[1]
  Ratio: 0.9
Pons [2]
  Drug uptake: 4.79
[3]
  Drug uptake: 3.83
Pons [4]
  Drug uptake: 4.35
[5]
  Ratio: 1.7
[6]
  Ratio: 1.7
[7]
  Ratio: 1.1
Thalamus [8]
  Drug uptake: 0.34
Thalamus [9]
  Drug uptake: 5.33
Midbrain [10]
  Drug uptake: 5.04
Putamen [11]
  Drug uptake: 5.25
Thalamus [12]
  Drug uptake: 5.02
Pons [13]
  Drug uptake: 4.93
[14]
  Drug uptake: 3.27
[15]
  Ratio: 1
[16]
  Ratio: 0.7
[17]
  Drug uptake: 4.66
Thalamus [18]
  Drug uptake: 4
[19]
  Drug uptake: 3.74
[20]
  Drug uptake: 3.74
Putamen [21]
  Drug uptake: 6.11
Pons [22]
  Drug uptake: 5.03
[23]
  Drug uptake: 0.01
[24]
  Ratio: 0.7
Pons [25]
  Drug uptake: 0.9
[26]
  Drug uptake: 2.7
[27]
  Ratio: 1.4
[28]
  Ratio: 1.1
Pons [29]
  Drug uptake: 3.84
[30]
  Ratio: 1.7
Putamen [31]
  Drug uptake: 5.97
[32]
  Ratio: 1.5
[33]
  Drug uptake: 1.47
Medulla [34]
  Drug uptake: 3.64
Medulla [35]
  Drug uptake: 4.48
Pons [36]
  Drug uptake: 3.17
Caudate [37]
  Drug uptake: 0.01
Thalamus [38]
  Drug uptake: 2.48
[39]
  Drug uptake: 3.67
Putamen [40]
  Drug uptake: 5.03
Midbrain [41]
  Drug uptake: 6.06
Putamen [42]
  Drug uptake: 4.42
Putamen [43]
  Drug uptake: 5.12
[44]
  Drug uptake: 2.81
[45]
  Ratio: 1.8
[46]
  Ratio: 1.6
[47]
  Ratio: 1
Midbrain [48]
  Drug uptake: 5.49
Thalamus [49]
  Drug uptake: 5.46
[50]
  Drug uptake: 0.01
Caudate [51]
  Drug uptake: 1.7
Pons [52]
  Drug uptake: 4.67
Midbrain [53]
  Drug uptake: 0.48
[54]
  Ratio: 1
Caudate [55]
  Drug uptake: 4.9
[56]
  Drug uptake: 4.16
[57]
  Ratio: 0.7
Caudate [58]
  Drug uptake: 5.23
[59]
  Ratio: 1.5
Caudate [60]
  Drug uptake: 4.04
[61]
  Ratio: 1.6
[62]
  Drug uptake: 2.03
[63]
  Drug uptake: 5.92
